Source: ChEMBL document CHEMBL3638693, “Pyrazole compound and pharmaceutical use thereof” (2014)

Target: T1, Sodium/glucose cotransporter 1 (Homo sapiens, UniProt P13866)
T1 sequence (P13866 whole entry): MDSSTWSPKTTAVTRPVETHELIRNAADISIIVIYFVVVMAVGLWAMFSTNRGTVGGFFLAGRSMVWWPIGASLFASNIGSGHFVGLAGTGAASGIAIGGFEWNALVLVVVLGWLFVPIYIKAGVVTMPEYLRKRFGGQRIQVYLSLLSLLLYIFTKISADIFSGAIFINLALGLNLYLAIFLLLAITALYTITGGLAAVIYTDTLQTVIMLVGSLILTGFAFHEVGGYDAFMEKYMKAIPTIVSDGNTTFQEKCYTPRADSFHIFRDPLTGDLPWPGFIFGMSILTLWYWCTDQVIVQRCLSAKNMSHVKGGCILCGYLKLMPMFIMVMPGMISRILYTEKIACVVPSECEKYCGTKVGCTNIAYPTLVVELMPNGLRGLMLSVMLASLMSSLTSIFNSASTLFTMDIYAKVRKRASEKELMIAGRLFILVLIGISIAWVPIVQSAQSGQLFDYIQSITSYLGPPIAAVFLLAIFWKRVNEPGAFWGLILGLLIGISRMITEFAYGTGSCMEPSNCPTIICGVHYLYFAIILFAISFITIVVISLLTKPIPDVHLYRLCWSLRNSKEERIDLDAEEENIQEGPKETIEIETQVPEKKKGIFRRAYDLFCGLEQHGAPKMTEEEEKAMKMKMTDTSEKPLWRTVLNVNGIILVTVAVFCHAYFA
Test: Inhibition Assay: The stable cell line expressing human SGLT1 was seeded at 5x10^4 cells/well on BioCoat Poly-D-Lysine 96 well plate with Lid (Becton Dickinson and Company) and cultured at 37 C. under 5% CO2 overnight. The medium was replaced with 100 uL/well of a Na (+) buffer (140 mM choline chloride, 2 mM KCl, 1 mM MgCl2, 1 mM CaCl2, 10 mM HEPES, 5 mM Tris, pH7.4) followed by incubation for 20 minutes at 37 C. under 5% CO2. After removing the Na (+) buffer, a test compound solution which was prepared from Na (+) buffer (140 mM NaCl, 2 mM KCl, 1 mM MgCl2, 1 mM CaCl2, 10 mM HEPES, 5 mM Tris, pH7.4) containing BSA was added thereto at 40 uL/well. In addition, Na (+) buffer containing 8 kBq of 14C-AMG and 2 mM AMG was added thereto at 40 uL/well, and was mixed well. Na (+) buffer containing BSA was added to a blank well at 40 uL/well and additionally adding a Na (+) buffer containing 8 kBq of 14C-AMG and 2 mM AMG, and was mixed well.

- IC50: 22 nM
SMILES: O=C1C[C@H](C(=O)Nc2cc(-c3cccc(COCC(F)(F)F)c3)n(-c3ccc(F)cc3)n2)CN1
